Legend:
[1] = target: Activin receptor type-2A (Homo sapiens) (UniProt P27037); conditions: Compound concentration 1000.0 nM
[2] = target: RAC-alpha serine/threonine-protein kinase (Homo sapiens) (UniProt P31749); conditions: Compound concentration 1000.0 nM
[3] = tested on: ALK tyrosine kinase receptor (Homo sapiens), Q9UM73 [C1156Y]; conditions: Compound concentration 1000.0 nM
[4] = target: 5'-AMP-activated protein kinase catalytic subunit alpha-1 (Homo sapiens) (UniProt Q13131); conditions: Compound concentration 1000.0 nM
[5] = target: Bone morphogenetic protein receptor type-1A (Homo sapiens) (UniProt P36894); conditions: Compound concentration 1000.0 nM
[6] = target: Calcium/calmodulin-dependent protein kinase type II subunit beta (Homo sapiens) (UniProt Q13554); conditions: Compound concentration 1000.0 nM
[7] = target: Calcium/calmodulin-dependent protein kinase kinase 1 (Homo sapiens) (UniProt Q8N5S9); conditions: Compound concentration 1000.0 nM
[8] = target: Dual specificity protein kinase CLK1 (Homo sapiens) (UniProt P49759); conditions: Compound concentration 1000.0 nM
[9] = target: Macrophage colony-stimulating factor 1 receptor (Homo sapiens) (UniProt P07333); conditions: Compound concentration 1000.0 nM
[10] = tested on: Epidermal growth factor receptor (Homo sapiens), P00533 [L858R]; conditions: Compound concentration 1000.0 nM
[11] = target: Ephrin type-A receptor 2 (Homo sapiens) (UniProt P29317); conditions: Compound concentration 1000.0 nM
Ephrin type-A receptor 2 (Homo sapiens), sequence (P29317 whole entry): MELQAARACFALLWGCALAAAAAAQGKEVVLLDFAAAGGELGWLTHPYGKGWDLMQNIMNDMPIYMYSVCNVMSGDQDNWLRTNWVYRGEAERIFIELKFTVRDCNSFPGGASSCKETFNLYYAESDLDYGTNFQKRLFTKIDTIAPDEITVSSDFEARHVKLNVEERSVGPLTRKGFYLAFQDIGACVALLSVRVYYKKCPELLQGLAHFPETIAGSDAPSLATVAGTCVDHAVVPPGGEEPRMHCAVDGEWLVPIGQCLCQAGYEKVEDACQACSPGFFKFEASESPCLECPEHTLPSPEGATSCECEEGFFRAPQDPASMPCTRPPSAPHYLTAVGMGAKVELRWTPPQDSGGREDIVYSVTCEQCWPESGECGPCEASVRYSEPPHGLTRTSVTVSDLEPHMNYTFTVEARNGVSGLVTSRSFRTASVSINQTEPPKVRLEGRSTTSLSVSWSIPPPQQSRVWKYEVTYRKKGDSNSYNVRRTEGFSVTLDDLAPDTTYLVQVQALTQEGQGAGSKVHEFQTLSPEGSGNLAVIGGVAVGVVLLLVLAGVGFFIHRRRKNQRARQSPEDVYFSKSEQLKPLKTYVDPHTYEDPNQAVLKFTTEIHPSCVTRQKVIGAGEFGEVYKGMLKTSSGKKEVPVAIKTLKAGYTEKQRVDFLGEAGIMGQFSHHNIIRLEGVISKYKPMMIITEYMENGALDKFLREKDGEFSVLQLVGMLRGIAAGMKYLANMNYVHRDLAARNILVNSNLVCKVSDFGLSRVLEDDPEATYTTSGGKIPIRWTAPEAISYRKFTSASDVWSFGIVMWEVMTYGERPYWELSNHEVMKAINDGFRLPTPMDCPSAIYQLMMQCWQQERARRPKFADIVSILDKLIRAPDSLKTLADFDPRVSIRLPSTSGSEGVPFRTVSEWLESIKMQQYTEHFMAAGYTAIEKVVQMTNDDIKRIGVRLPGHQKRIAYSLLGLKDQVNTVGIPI

[12] = target: Ephrin type-A receptor 3 (Homo sapiens) (UniProt P29320); conditions: Compound concentration 1000.0 nM
[13] = target: Ephrin type-B receptor 4 (Homo sapiens) (UniProt P54760); conditions: Compound concentration 1000.0 nM
[14] = tested on: Receptor-type tyrosine-protein kinase FLT3 (Homo sapiens), P36888 [D835V]; conditions: Compound concentration 1000.0 nM
[15] = tested on: Receptor-type tyrosine-protein kinase FLT3 (Homo sapiens), P36888 [D835Y]; conditions: Compound concentration 1000.0 nM
[16] = target: Cyclin-G-associated kinase (Homo sapiens) (UniProt O14976); conditions: Compound concentration 1000.0 nM
[17] = target: Homeodomain-interacting protein kinase 1 (Homo sapiens) (UniProt Q86Z02); conditions: Compound concentration 1000.0 nM
Homeodomain-interacting protein kinase 1 (Homo sapiens), sequence (Q86Z02 whole entry, looked up): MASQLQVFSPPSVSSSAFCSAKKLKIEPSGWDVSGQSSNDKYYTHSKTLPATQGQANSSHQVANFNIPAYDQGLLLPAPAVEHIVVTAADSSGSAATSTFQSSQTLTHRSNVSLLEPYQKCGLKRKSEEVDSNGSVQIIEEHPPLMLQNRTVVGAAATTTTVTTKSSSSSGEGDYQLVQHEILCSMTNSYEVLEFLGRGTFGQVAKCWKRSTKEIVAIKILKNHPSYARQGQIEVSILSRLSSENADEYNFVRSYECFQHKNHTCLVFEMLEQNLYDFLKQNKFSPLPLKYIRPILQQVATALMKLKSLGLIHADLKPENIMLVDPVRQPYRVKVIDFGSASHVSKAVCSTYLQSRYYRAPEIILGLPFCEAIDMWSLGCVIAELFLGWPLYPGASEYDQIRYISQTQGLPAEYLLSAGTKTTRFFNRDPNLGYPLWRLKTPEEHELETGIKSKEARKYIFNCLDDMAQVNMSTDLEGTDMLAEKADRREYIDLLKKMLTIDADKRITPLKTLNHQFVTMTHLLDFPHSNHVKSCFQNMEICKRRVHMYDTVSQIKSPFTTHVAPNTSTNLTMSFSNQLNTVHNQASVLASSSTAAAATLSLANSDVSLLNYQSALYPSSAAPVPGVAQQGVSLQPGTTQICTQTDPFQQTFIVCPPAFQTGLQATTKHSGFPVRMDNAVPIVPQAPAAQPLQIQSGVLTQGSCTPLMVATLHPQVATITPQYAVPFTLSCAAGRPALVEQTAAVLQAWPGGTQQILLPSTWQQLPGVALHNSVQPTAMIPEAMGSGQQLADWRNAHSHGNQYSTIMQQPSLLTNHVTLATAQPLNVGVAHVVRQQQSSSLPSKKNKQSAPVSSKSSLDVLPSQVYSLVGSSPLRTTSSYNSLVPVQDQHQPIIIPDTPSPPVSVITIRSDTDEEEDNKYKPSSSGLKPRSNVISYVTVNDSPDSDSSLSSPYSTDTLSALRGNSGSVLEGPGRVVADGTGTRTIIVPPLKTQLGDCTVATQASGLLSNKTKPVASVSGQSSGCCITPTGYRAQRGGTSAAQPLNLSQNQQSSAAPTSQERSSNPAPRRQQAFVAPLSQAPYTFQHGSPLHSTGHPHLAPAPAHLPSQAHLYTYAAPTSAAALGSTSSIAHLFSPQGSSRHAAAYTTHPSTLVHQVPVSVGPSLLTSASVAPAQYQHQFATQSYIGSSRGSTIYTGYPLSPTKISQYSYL

[18] = target: Hormonally up-regulated neu tumor-associated kinase (Homo sapiens) (UniProt P57058); conditions: Compound concentration 1000.0 nM
[19] = target: Tyrosine-protein kinase JAK2 (Homo sapiens) (UniProt O60674); conditions: Compound concentration 1000.0 nM
[20] = target: Mitogen-activated protein kinase 9 (Homo sapiens) (UniProt P45984); conditions: Compound concentration 1000.0 nM
[21] = tested on: Mast/stem cell growth factor receptor Kit (Homo sapiens), P10721 [A829P]; conditions: Compound concentration 1000.0 nM
[22] = target: Leukocyte tyrosine kinase receptor (Homo sapiens) (UniProt P29376); conditions: Compound concentration 1000.0 nM
[23] = target: Mitogen-activated protein kinase kinase kinase 2 (Homo sapiens) (UniProt Q9Y2U5); conditions: Compound concentration 1000.0 nM
[24] = target: Mitogen-activated protein kinase kinase kinase 3 (Homo sapiens) (UniProt Q99759); conditions: Compound concentration 1000.0 nM
Mitogen-activated protein kinase kinase kinase 3 (Homo sapiens), sequence (Q99759 whole entry): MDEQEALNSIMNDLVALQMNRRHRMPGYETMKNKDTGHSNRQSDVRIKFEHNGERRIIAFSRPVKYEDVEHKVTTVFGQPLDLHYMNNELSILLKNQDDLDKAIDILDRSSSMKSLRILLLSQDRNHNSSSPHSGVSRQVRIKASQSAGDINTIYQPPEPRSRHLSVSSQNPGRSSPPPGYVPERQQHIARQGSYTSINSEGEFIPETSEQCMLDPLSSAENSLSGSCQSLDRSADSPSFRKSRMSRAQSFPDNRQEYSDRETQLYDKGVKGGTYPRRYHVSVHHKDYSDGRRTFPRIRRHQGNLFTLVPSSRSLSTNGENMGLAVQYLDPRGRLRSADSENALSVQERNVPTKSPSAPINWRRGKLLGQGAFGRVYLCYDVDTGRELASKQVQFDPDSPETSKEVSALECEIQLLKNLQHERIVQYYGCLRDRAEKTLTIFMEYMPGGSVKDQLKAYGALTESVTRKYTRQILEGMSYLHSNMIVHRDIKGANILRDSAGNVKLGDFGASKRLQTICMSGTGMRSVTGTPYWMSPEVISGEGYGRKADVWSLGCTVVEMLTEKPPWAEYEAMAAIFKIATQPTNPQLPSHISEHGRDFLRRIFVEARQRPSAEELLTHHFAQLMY

[25] = target: Mitogen-activated protein kinase kinase kinase 4 (Homo sapiens) (UniProt Q9Y6R4); conditions: Compound concentration 1000.0 nM
[26] = target: Mitogen-activated protein kinase 13 (Homo sapiens) (UniProt O15264); conditions: Compound concentration 1000.0 nM
Mitogen-activated protein kinase 13 (Homo sapiens), sequence (O15264 whole entry): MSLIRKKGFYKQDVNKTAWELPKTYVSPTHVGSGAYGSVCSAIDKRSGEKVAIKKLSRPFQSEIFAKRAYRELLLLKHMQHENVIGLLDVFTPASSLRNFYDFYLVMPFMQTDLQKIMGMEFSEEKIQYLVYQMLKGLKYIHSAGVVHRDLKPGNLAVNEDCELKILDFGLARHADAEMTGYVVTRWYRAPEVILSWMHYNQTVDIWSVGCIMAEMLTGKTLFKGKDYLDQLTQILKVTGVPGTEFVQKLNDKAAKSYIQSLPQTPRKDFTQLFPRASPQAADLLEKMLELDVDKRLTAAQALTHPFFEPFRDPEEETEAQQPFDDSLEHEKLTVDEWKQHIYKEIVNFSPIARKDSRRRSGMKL

[27] = target: Mitogen-activated protein kinase 12 (Homo sapiens) (UniProt P53778); conditions: Compound concentration 1000.0 nM
[28] = target: Cyclin-dependent kinase 16 (Homo sapiens) (UniProt Q00536); conditions: Compound concentration 1000.0 nM
[29] = target: Platelet-derived growth factor receptor alpha (Homo sapiens) (UniProt P16234); conditions: Compound concentration 1000.0 nM
[30] = target: Platelet-derived growth factor receptor beta (Homo sapiens) (UniProt P09619); conditions: Compound concentration 1000.0 nM
Platelet-derived growth factor receptor beta (Homo sapiens), sequence (P09619 whole entry, canonical isoform): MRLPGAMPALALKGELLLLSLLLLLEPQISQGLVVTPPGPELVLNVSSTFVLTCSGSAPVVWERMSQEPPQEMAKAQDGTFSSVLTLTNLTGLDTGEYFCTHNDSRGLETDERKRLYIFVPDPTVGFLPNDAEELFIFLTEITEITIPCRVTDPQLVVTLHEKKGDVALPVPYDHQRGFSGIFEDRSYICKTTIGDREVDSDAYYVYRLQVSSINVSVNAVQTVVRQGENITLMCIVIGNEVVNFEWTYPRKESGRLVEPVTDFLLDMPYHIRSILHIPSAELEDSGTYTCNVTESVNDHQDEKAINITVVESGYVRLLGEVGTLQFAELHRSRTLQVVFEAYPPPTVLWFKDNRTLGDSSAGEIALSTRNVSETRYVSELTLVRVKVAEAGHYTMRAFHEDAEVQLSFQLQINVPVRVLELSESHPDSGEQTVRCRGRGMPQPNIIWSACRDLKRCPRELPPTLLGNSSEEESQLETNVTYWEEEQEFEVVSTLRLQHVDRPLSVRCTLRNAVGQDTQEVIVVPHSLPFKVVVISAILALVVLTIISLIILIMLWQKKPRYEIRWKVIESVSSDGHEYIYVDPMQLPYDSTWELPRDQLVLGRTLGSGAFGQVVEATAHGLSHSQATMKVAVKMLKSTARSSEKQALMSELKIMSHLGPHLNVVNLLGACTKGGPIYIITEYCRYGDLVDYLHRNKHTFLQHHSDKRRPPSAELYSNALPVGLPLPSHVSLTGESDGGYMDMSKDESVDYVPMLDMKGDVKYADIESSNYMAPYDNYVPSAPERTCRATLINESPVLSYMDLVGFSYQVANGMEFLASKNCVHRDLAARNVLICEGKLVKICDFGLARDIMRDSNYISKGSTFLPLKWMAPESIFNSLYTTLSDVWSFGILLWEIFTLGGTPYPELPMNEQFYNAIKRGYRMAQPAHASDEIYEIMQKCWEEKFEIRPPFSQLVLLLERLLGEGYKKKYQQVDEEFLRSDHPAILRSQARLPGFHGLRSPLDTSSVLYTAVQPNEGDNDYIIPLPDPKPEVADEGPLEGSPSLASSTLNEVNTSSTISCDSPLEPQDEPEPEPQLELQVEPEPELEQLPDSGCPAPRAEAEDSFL

[31] = tested on: Phosphatidylinositol 4,5-bisphosphate 3-kinase catalytic subunit alpha isoform (Homo sapiens), P42336 [H1047L]; conditions: Compound concentration 1000.0 nM
[32] = target: Proto-oncogene tyrosine-protein kinase receptor Ret (Homo sapiens) (UniProt P07949); conditions: Compound concentration 1000.0 nM
[33] = tested on: Proto-oncogene tyrosine-protein kinase receptor Ret (Homo sapiens), P07949 [V804M]; conditions: Compound concentration 1000.0 nM
[34] = target: Ribosomal protein S6 kinase alpha-5 (Homo sapiens) (UniProt O75582); conditions: Compound concentration 1000.0 nM
[35] = target: Serine/threonine-protein kinase Sgk2 (Homo sapiens) (UniProt Q9HBY8); conditions: Compound concentration 1000.0 nM
[36] = target: SRSF protein kinase 2 (Homo sapiens) (UniProt P78362); conditions: Compound concentration 1000.0 nM
SRSF protein kinase 2 (Homo sapiens), sequence (P78362 whole entry, looked up): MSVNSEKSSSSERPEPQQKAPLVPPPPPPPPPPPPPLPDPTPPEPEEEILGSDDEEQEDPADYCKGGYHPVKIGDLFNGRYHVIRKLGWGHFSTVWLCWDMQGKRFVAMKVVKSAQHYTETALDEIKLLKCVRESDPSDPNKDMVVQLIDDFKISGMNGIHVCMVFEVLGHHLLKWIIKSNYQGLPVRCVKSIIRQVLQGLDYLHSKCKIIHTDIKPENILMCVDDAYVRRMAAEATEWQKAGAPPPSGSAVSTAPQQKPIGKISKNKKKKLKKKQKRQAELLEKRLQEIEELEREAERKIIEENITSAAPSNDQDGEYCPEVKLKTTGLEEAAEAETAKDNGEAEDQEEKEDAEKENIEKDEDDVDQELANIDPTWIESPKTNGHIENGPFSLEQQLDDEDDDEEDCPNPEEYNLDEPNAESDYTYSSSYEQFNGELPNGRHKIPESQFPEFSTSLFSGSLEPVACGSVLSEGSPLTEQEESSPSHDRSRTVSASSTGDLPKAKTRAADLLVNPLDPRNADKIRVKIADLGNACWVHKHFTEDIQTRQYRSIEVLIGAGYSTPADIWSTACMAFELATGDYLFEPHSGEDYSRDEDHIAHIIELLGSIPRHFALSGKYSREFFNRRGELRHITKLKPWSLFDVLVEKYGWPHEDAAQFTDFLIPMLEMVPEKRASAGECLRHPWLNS

[37] = target: Tyrosine-protein kinase SYK (Homo sapiens) (UniProt P43405); conditions: Compound concentration 1000.0 nM
[38] = target: Dual specificity testis-specific protein kinase 1 (Homo sapiens) (UniProt Q15569); conditions: Compound concentration 1000.0 nM
[39] = target: Tyrosine-protein kinase TXK (Homo sapiens) (UniProt P42681); conditions: Compound concentration 1000.0 nM
[40] = target: Serine/threonine-protein kinase WNK1 (Homo sapiens) (UniProt Q9H4A3); conditions: Compound concentration 1000.0 nM
[41] = target: Serine/threonine-protein kinase 32C (Homo sapiens) (UniProt Q86UX6); conditions: Compound concentration 1000.0 nM
[42] = target: 5-hydroxytryptamine receptor 3A (Homo sapiens) (UniProt P46098); conditions: Compound concentration 10.0 uM
[43] = target: 5-hydroxytryptamine receptor 7 (Homo sapiens) (UniProt P34969); conditions: Compound concentration 10.0 uM
[44] = target: Alpha-1A adrenergic receptor (Homo sapiens) (UniProt P35348); conditions: Compound concentration 10.0 uM
[45] = target: Muscarinic acetylcholine receptor M2 (Homo sapiens) (UniProt P08172); conditions: Compound concentration 10.0 uM

Cc1nc(N2CC[C@@H](O)C2)ncc1-c1cc(C(F)(F)F)cc2[nH]ncc12 [TP-004]
inactive: residual activity [1] 73% | residual activity [2] 100% | residual activity [3] 100% | residual activity [4] 89% | residual activity [5] 100% | residual activity [6] 100% | residual activity [7] 100% | residual activity [8] 87% | residual activity [9] 82% | residual activity [10] 77% | residual activity [11] 100% | residual activity [12] 94% | residual activity [13] 100% | residual activity [14] 58% | residual activity [15] 80% | residual activity [16] 83% | residual activity [17] 74% | residual activity [18] 100% | residual activity [19] 61% | residual activity [20] 61% | residual activity [21] 60% | residual activity [22] 87% | residual activity [23] 60% | residual activity [24] 82% | residual activity [25] 100% | residual activity [26] 100% | residual activity [27] 100% | residual activity [28] 75% | residual activity [29] 76% | residual activity [30] 58% | residual activity [31] 93% | residual activity [32] 84% | residual activity [33] 96% | residual activity [34] 81% | residual activity [35] 88% | residual activity [36] 100% | residual activity [37] 100% | residual activity [38] 94% | residual activity [39] 100% | residual activity [40] 71% | residual activity [41] 86% | inhibition [42] 6.06% | inhibition [43] 10.8% | inhibition [44] 15.7% | inhibition [45] -8.94%

Reference: ChEMBL document CHEMBL4507303, “Data for DCP probe TP-004” (2021)
